Source: US9044424B2, “Methods of regulating glucose metabolism, and reagents related thereto” (Trustees of Tufts College, priority 1998, dated 2015)
Read-outs that look alike come from different tables or passages of the source. Blank lines part the entries; values can stand above or below the compound they belong to.

Key:
DP-IV = DP-IV (Homo sapiens, UniProt P27487); assay: DP-IV inhibition / affinity
Procedure: As an illustrative embodiment, the ability of a test agent to inhibit DPIV can be assessed using a colorimetric or fluorometric substrate, such as Ala-Pro-paranitroanilide.
An illustrative reaction mixture includes 50 μM sodium Hepes (pH7.8), 10 μM Ala-Pro-paranitroanilide, 6 milliunits of DPIV, and 2% (v/v) dimethylformamide in a total volume of 1.0 mL. The reaction is initiated by addition of enzyme, and formation of reaction product (paranitroanilide) in the presence and absence of a test compound can be detected photometrically, e.g., at 410 nm.

mice = assay: Oral glucose tolerance test in mice; format: in vivo; settings: for glucose levels in blood / glucose control: single injection alone, one hour prior to oral glucose challenge, FIG. 3; for response to a sub-therapeutic dose of GLP-1: single injection, with 8 μg GLP-1
Procedure: The first two experiments are “acute” experiments wherein the mice were injected with a single dose of Pro-boro-pro. In the first set of experiments mice were injected with 150 μg of Pro-boro-pro (PBP-1) and then subjected to an oral glucose tolerance test within an hour. […] In a second set of experiments mice were injected with Pro-boro-pro (PBP-2) one hour prior to an oral glucose challenge test. FIG. 3 presents the results of these experiments. Each set of experiments was also performed using saline as a control.
The third set of experiments were “chronic” experiments, wherein the mice were injected twice daily with Pro-boro-pro for four days, followed by an oral glucose challenge.

[1] = cited from earlier work
[2] = chronic (>5 days) treatment alone

DP-IV, sequence (P27487 whole entry): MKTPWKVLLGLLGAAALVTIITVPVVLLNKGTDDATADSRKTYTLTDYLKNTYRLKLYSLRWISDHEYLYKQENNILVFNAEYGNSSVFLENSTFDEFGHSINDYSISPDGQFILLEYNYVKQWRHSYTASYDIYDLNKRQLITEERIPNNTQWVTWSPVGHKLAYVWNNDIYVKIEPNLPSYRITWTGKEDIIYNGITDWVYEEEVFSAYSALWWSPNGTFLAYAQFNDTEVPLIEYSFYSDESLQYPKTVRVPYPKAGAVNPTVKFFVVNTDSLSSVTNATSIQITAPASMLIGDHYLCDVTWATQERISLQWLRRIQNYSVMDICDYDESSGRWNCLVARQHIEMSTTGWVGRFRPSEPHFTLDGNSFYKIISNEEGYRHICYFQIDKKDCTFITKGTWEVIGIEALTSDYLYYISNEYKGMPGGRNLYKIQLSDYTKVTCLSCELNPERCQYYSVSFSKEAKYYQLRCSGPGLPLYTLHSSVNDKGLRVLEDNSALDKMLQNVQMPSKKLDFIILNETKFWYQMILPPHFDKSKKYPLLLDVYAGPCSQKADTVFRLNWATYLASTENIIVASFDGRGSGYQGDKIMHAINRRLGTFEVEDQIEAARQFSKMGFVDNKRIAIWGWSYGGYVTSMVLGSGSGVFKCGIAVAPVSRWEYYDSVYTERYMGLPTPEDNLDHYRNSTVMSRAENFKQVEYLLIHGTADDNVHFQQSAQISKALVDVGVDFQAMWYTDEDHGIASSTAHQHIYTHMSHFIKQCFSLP

Compound: L-Ala-L-boroPro-pinacol
- extent of DP-IV inhibition (DP-IV; silica gel fractions compared at equal concentrations): inhibits DP-IV to a greater extent than later fractions

- affinity for DP-IV (DP-IV): no affinity
Compound: CC(NC(=O)OC(C)(C)C)C(=O)N1CCCC1B(O)O (stereo not drawn) [Boc-blocked Ala-boroPro, Boc-Ala-boroPro]

Compound: O=C(C1CCCN1)N1CCCC1B(O)O (stereo not shown) [Pro-boro-pro]
- fasting blood sugars (mice; [2]): lowers
- glycemic excursion to oral glucose challenge (mice; [2]): lowers
- blood sugar levels (mice; chronic: injected twice daily for four days, then oral glucose challenge, FIG. 4): lowering of the blood sugar levels
- blood sugar (mice; oral glucose challenge in mice, overall statement): clearly lowers blood sugar
- glucose levels in blood (glucose tolerance curve) (mice; single injection 150 μg, oral glucose tolerance test within an hour, 8 μg GLP-1 five minutes prior to glucose, FIG. 2): improves glucose levels in blood
- glucose levels in blood / glucose control (mice): alone sufficient to improve glucose control
- glucose levels in blood / glucose control (mice; listed as PBP-2): improves glucose levels in blood
- response to a sub-therapeutic dose of GLP-1 (mice; FIG. 2): potentiate the response to a subtherapeutic dose of GLP-1
- response to a sub-therapeutic dose of GLP-1 (mice; FIG. 2, listed as PBP-1): potentiates the response to a sub-therapeutic dose of GLP-1

Compound: glucagon-like peptide-1 [GLP-1]
- metabolite share of the increase in plasma immunoreactivity (COOH-terminal RIA) ([1]; thirty minutes after subcutaneous GLP-1, diabetic patients (n=8)): 88.5+1.9%
- metabolite share of the increase in plasma immunoreactivity (COOH-terminal RIA) ([1]; thirty minutes after subcutaneous GLP-1, healthy subjects (n=8)): 78.4+3.2%
